According to patent US20250296909A1, “NOVEL BENZENE DERIVATIVE AND IMMUNOSUPPRESSION-RELATED USE THEREOF” (PROVIBIO CO., LTD., priority 2021, published 2025):
Where two headings read alike, the source gives them in different places.

What was measured:
[1] = tested on: spleen T cells; assay: Cytokine secretion by anti-CD3/CD28-activated T cells (Cytometric Bead Array); type: cell-based, C57BL/6 mice; conditions: 30 μM; for secretion of IL-2: 24 hours after treatment, FIG. 3; for secretion of IFN-γ / secretion of IL-17A / secretion of TNF-α: 72 hours after treatment
Experimental: To confirm the effect of compounds of the present invention on the secretion of cytokines by T cells, the following experiment was conducted.
Spleens were harvested and minced from C57BL/6 mice at 7 weeks of age, and single cells were isolated using a strainer (40 μm pore size, SPL). Red blood cells were removed using ACK (Ammonium-Chloride-Potassium) lysis buffer to isolate only leukocytes. These were then reacted with 10 v/v % CD90.2 microbeads (130-121-278, Miltenyi Biotech.) at 4° C. for 20 minutes, resulting in the isolation of spleen T cells from magnetic-based purification. The T cells were cultured in a 96-well plate at an amount of 2×10^5 cells/well. For T cell activation, each well was treated with anti-CD3/CD28 antibodies at a concentration of 1 μg/mL. Subsequently, Vehicle (DMSO) and compounds (Compound 14, Compound 19, Compound 26, Compound 31, Compound 35, Compound 40, Compound 41, Compound 56, Compound 69, Compound 75) at a concentration of 30 μM were treated in each well, and it was cultured at 37° C. in a 5% CO2 incubator. After 24 and 72 hours, the T cell culture medium was taken, and centrifugation was performed at 13,000 rpm for 10 minutes to obtain the supernatant.
To measure the concentration of cytokines present in the T cell culture medium, Mouse Th1/Th2/Th17 Cytokine CBA Kit (Cytometric Bead Array kit) 560485 from BD Science was utilized for flow cytometry analysis. The secretion levels of IL-2 at 24 hours after each drug treatment, and IFN-γ, TNF-α, and IL-17A at 72 hours were measured after each drug treatment.

[2] = tested on: spleen T cells; assay: T cell proliferation inhibition (CFSE, FACS), CD3/CD28-activated spleen T cells; type: cell-based, C57BL/6 mice; conditions: for inhibition at 10 µM / inhibition at 30 µM / inhibition at 50 µM: Mus musculus, T-cell, read-out: Proliferation inhibition rate (%)
Experimental: To investigate whether the compounds obtained in the Preparation Example have an inhibitory effect on T cell proliferation, the T cell proliferation was determined ex vivo using the fluorescent dye carboxyfluorescein diacetate succinimidyl ester (CFSE), which binds to intracellular molecules by covalent bonds.
Spleens were harvested and minced from C57BL/6 mice at 7 weeks of age, and then single cells were isolated using a strainer (40 μm pore size, SPL). Red blood cells were removed using ACK (Ammonium-Chloride-Potassium) lysis buffer to isolate only leukocytes. Subsequently, CD90.2 microbeads (130-121-278, Miltenyi Biotech.) were added, and subjected to react at 4° C. for 20 minutes. After that, spleen T cells were isolated using a MACS Magnetic Stand and LS column. The isolated T cells from the spleen were resuspended in 1 mL of Free media (RPMI-1640+200 U/mL penicillin+200 μg/mL streptomycin), followed by the addition of 0.3 μL of CFSE (10 mM), and reacted at 37° C. for 5 minutes. Subsequently, 10 mL of Free media was added to stop the reaction, and the cells were centrifuged to obtain the cell pellet. RPMI 1640 medium containing 10% FBS, 100 U/mL penicillin, and 100 μg/mL streptomycin was added to suspend the cells, and 2×10^5 cells per well were seeded into a 96-well plate and T cells were activated by treatment with CD3 and CD28 antibodies (each at 0.5 μg/mL).
The compound diluted in DMSO was treated in triplicate at concentrations of 10 μM, 30 μM, and 50 μM, respectively. After incubation at 37° C. with 5% CO2 for 3 days, cell proliferation levels were determined using a FACS Canto machine.
In the FACS graph of FIG. 1, the y-axis represents the quantity (number) of cells, while the x-axis represents the fluorescence level of the cells. […] This reduction in CFSE fluorescence results in a leftward shift along the x-axis in the graph. This indicates cell proliferation.
To collectively indicate the proliferation inhibition rate for the experimental results, the relative value of the proliferation amount after compound administration to the proliferation amount after CD3/CD28+DMSO administration was calculated. Subsequently, it was converted into an inhibition amount and expressed as a percentage, thereby determining the proliferation inhibition rate. Specifically, the proliferation inhibition rate was calculated as follows: […]

[3] = tested on: T lymphocyte cell line Jurkat E6-1; assay: Cytotoxicity experiment (CCK-8, relative cell survival); type: cell-based; conditions: 24 hours, untreated cells = 100%
Experimental: To evaluate the cytotoxicity of the compound according to the present invention, the following experiment was conducted.
The T lymphocyte cell line Jurkat E6-1, purchased from the Korean Cell Line Bank, was cultured in RPMI-1640 medium comprising 10% FBS, 100 U/mL penicillin, and 100 μg/mL streptomycin. After culturing, the cells were harvested and centrifuged at 1,300 rpm for 5 minutes. After removal of the supernatant, the cells were resuspended in the same medium at a concentration of approximately 2.2×10^5 cells/mL, and 90 μL of the cell suspension was distributed per well into a 96-well plate (Costar 96 well cell culture plate, Corning). After treating 10 μL of each compound at different concentrations onto the respective wells of the plate, it was cultured for 24 hours at 37° C. in a 5% CO2 incubator. Subsequently, 10 μL of CCK-8 was added to each well, and it was cultured again for 2 hours at 37° C. in a 5% CO2 incubator. Absorbance was then measured at 450 nm to determine the relative cell survival rate compared to untreated cells, as shown in Table 4.
The values listed in Table 4 represent the relative cell survival rates in the groups treated with each compound at different concentrations, with the cell survival rate of untreated cells set as 100%.

[4] = Table 2, 10 μM, 3 days, relative to CD3/CD28+DMSO
[5] = Table 2, 30 μM, 3 days, relative to CD3/CD28+DMSO
[6] = Table 2, 50 μM, 3 days, relative to CD3/CD28+DMSO
[7] = 72 h, Table 2, 10 μM, 3 days, relative to CD3/CD28+DMSO
[8] = 72 h, Table 2, 30 μM, 3 days, relative to CD3/CD28+DMSO
[9] = 72 h, Table 2, 50 μM, 3 days, relative to CD3/CD28+DMSO

| Structure (SMILES) | secretion of IL-2 [1] | secretion of IFN-γ [1] | secretion of IL-17A [1] | secretion of TNF-α [1] | Proliferation inhibition rate (%) [2, 4] [%] | Proliferation inhibition rate (%) [2, 5] [%] | Proliferation inhibition rate (%) [2, 6] [%] | Relative cell survival rate (%) ([3]; 10 μM) | Relative cell survival rate (%) ([3]; 20 μM) | Relative cell survival rate (%) ([3]; 30 μM) | Relative cell survival rate (%) ([3]; 50 μM) | inhibition at 10 µM [2, 7] [%] | inhibition at 30 µM [2, 8] [%] | inhibition at 50 µM [2, 9] [%] | inhibition at 10 µM ([2]; Table 3 (compounds not belonging to Formula 1), 10 μM) [%] | inhibition at 30 µM ([2]; Table 3 (compounds not belonging to Formula 1), 30 μM) [%] | inhibition at 50 µM ([2]; Table 3 (compounds not belonging to Formula 1), 50 μM) [%] |
| --- | --- | --- | --- | --- | --- | --- | --- | --- | --- | --- | --- | --- | --- | --- | --- | --- | --- |
| CCCCCCCCCCCCNC(=O)c1cccnc1Oc1ccc(Cl)cc1 [Compound 26] | significant decrease | significant decrease | significant decrease | significant decrease | 73 | 100 | 100 | 101 | 97 | 85 | 82 | – | – | – | – | – | – |
| CCCCCCCCCCCCNC(=O)c1cccnc1 [Compound 19] | significant decrease | significant decrease | significant decrease | significant decrease | – | – | – | 94 | 87 | 82 | 83 | 19 | 99 | 100 | – | – | – |
| CCCCCCCCCCCCNC(=O)CNC(=O)c1ccccc1Cl [Compound 56] | significant decrease | significant decrease | significant decrease | significant decrease | 26 | 50 | 62 | 92 | 91 | 89 | 86 | – | – | – | – | – | – |
| CCCCCCCCCCCCNC(=O)c1cnccc1N [Compound 71] | – | – | – | – | – | – | – | 101 | 94 | 92 | 88 | 100 | 100 | 100 | – | – | – |
| CCCCCCCCCCCCNC(=O)c1ccccc1C(=O)NC1CCCCC1 [Compound 53] | – | – | – | – | – | – | – | 96 | 97 | 98 | 95 | 22 | 65 | 85 | – | – | – |
| CCCCCCCCCNC(=O)/C=C/c1ccccc1Br [Compound 10] | – | – | – | – | – | – | – | 91 | 88 | 85 | 83 | 15 | 72 | 92 | 5 | 9 | 3 |
| CCCCCCCCCCCCNC(=O)c1ccc(F)c(F)c1F [Compound 55] | – | – | – | – | – | – | – | 115 | 110 | 108 | 105 | 52 | 82 | 95 | – | – | – |
| CCCCCCCCCCCCNC(=O)c1ccccc1I [Compound 63] | – | – | – | – | – | – | – | 70 | 78 | 75 | 79 | 30 | 78 | 89 | – | – | – |
| CCCCCCCCCCCCNC(=O)c1cccnn1 [Compound 31] | – | – | – | – | – | – | – | 111 | 111 | 102 | 102 | 15 | 57 | 69 | – | – | – |
| CCCCCCCCNC(=O)c1cccnc1N [Compound 74] | – | – | – | – | – | – | – | 101 | 84 | 81 | 77 | 66 | 91 | 95 | – | – | – |
| CCCCCCCCCCCC(=O)NCc1ccccc1Br [Compound 43] | – | – | – | – | – | – | – | 101 | 104 | 108 | 108 | 27 | 50 | 72 | – | – | – |
| CCCCCCCCCCCCNC(=O)c1c(Cl)ccnc1Cl [Compound 30] | – | – | – | – | – | – | – | 120 | 109 | 108 | 106 | 16 | 41 | 55 | – | – | – |
| CCCCCCCCCCCCNC(=O)c1ccccc1NC [Compound 65] | – | – | – | – | – | – | – | 87 | 84 | 86 | 77 | 39 | 43 | 77 | – | – | – |
| CCCCCCCCCCCCNC(=O)c1ccccc1C(=O)O [Compound 37] | – | – | – | – | – | – | – | 90 | 90 | 90 | 92 | 23 | 55 | 65 | – | – | – |
| CCCCCCCCCCCCNC(=O)c1ccncc1Cl [Compound 12] | – | – | – | – | – | – | – | 100 | 92 | 83 | 79 | 5 | 38 | 99 | – | – | – |
